From PMC5298241, “Mitochondria-penetrating peptides conjugated to desferrioxamine as chelators for mitochondrial labile iron” (PLoS ONE, 2017)
Like-named read-outs stand apart in the source and are kept apart here. Numbered stars: 1 amine (or outer) side, 2 acyl side, 3 side chain; on linkers, the order of the positions; unused ones are H or OH. Square brackets hold non-standard residues; d marks the D form. Peptide text beside a SMILES is read from it. * marks the point of attachment. 5TAMRA = CN(C)c1ccc2c(c1)Oc1cc(N(C)C)ccc1C21OC(=O)c2cc(C(=O)*)ccc21; DFO = CC(=O)N(O)CCCCCNC(=O)CCC(=O)N(O)CCCCCNC(=O)CCC(=O)N(O)CCCCCN*; Cha = N[C@@H](CC1CCCCC1)C(=O)O; Suc = O=C(CCC(=O)[*:2])[*:1]

Key:
A2780 cells [1] = test system: A2780 cells
Protocol: (§1) A2780 (human ovarian cancer) cell line was obtained from Fox Chase Cancer Center (USA) and cultured in RPMI-1640 medium supplemented with 10% FBS and 1% penicillin/streptomycin. Cells were incubated at 37°C in a humidified incubator with a 5% CO2.
(§2) A2780 cells were plated in 96-well flat-bottom tissue culture plates (Starstedt) at 25,000 cells per well. The culture medium was removed, and cells were washed. Cellular viability was analyzed after an overnight incubation at 37°C with 5% CO2 using the CCK-8 viability dye (Dojindo, Rockville, Maryland) at an absorbance of 450 nm. From the resulting dose-response curves, 50% growth inhibitory concentration (IC50) values were determined by interpolation [22].

[2] = test system: mitochondria of A2780 cells; test: Mitochondrial localization (colocalization with MitoTracker Deep Red); assay type: cell-based, human; settings: TAMRA-labeled mtDFO 1–10 μM, 1 h, MitoTracker Deep Red 30 min, epifluorescence microscopy, ImageJ
Protocol: A2780 cells were seeded in an imaging dish in 2 mL of growth medium at 60% confluence. The growth medium was swapped with premixed medium containing 1–10 μM of TAMRA-mtDFO, and the cells were allowed to incubate with the dye for 1 h. MitoTracker Deep Red was added to the cells at 1.0–4.0 μM concentrations and allowed to incubate for 30 min. At the end of the incubation period, the medium was aspirated, and the cells were washed with 3 × 1 mL PBS and incubated with 2 mL of dye-free DMEM. The imaging experiments were performed using a Zeiss Axiovert 200M inverted epifluorescence microscope equipped with an EM-CCD digital camera (Hamamatsu) and a MS200 XY Piezo Z stage (Applied Scientific Instruments). The light source was an X-Cite 120 metal-halide lamp (EXFO), and the fluorescence images were obtained with an oil-immersion objective at 63× magnification. The microscope was operated by the Volocity software program of Perkin-Elmer. Colocalization of the dyes was quantitated using the program ImageJ using a previously described protocols.

[3] = Antioxidant activity (iron-catalysed oxidation of DHR by ascorbate); assay type: biochemical; settings: 20 μM chelator, 40 μM ascorbic acid, 50 μM DHR in HBS; Fe(NTA) or serum of iron-overloaded patients; 37°C, slopes 15−40 min
Protocol: The standard ferric nitrilotriacetate (Fe(NTA)) complex (1:3 Fe:NTA molar ratio) was prepared by adding FAS to a stock solution of aqueous NTA, and allowed to react for 1 h at 37°C under air so that iron is oxidized to Fe(III) (evidenced by the change of color to deep yellow). Then, 180 μL of a mixture of 40 μM ascorbic acid, 50 μM DHR, and 20 μM chelators (DFO, DFO-Tat, DFO-1A, DFO-SS02 e DFO-SS20) in HBS was placed in a 96-well microplate and treated with 20 μL of either Fe(NTA) at different concentrations or sera from iron overloaded patients. Assays were performed in duplicate. Sera samples were furnished by Dr. Nelson Hamerschlak, Albert Einstein Hospital, São Paulo. Fluorescence was measured in a BMG FluoStar Optima instrument for 60 min at 37°C (λexc/λem = 485/520 nm). The slopes (indicating rate of oxidation, presented in fluorescence units per minute) of the oxidation curves were calculated in the time range 15−40 min and were plotted against iron concentration.

A2780 cells [4] = test: cells; settings: Homo sapiens, A2780, 24 h
Protocol: as §1, §2

[5] = A2780 cells, 24 h (overnight incubation at 37°C, 5% CO2), CCK-8 viability dye, absorbance 450 nm, interpolation of dose-response curves, average ± s.d. of at least three independent experiments

Compound: CC(=O)N(O)CCCCCNC(=O)CCC(=O)N(O)CCCCCNC(=O)CCC(=O)N(O)CCCCCNC(=O)CCC(=O)N[C@@H](CC1CCCCC1)C(=O)N[C@H](CCCNC(=N)N)C(=O)N[C@@H](CC1CCCCC1)C(=O)N[C@@H](CCCCN)C(=O)N[C@@H](CC1CCCCC1)C(=O)N[C@H](CCCNC(=N)N)C(=O)N[C@@H](CC1CCCCC1)C(=O)N[C@@H](CCCCN)C(N)=O [DFO-1A] ({DFO-Suc}-[Cha][dR][Cha]K[Cha][dR][Cha]K-NH2)
- IC50 (A2780 cells [1]; 24 h): 108 ± 2.51 µM

Compound: CC(=O)N(O)CCCCCNC(=O)CCC(=O)N(O)CCCCCNC(=O)CCC(=O)N(O)CCCCCNC(=O)CCC(=O)N[C@@H](CCCNC(=N)N)C(=O)N[C@@H](CCCCN)C(=O)N[C@@H](CCCCN)C(=O)N[C@@H](CCCNC(=N)N)C(=O)N[C@@H](CCCNC(=N)N)C(=O)N[C@@H](CCC(N)=O)C(=O)N[C@@H](CCCNC(=N)N)C(=O)N[C@@H](CCCNC(=N)N)C(=O)N[C@@H](CCCNC(=N)N)C(=O)O [DFO-TAT]
- IC50 (A2780 cells [1]; [5]): 111 ± 1.17 µM

Compound: carboxy-tetramethylrhodamine [TAMRA]
- Rr = Pearson correlation coefficient (colocalization with MitoTracker) [2]: does not locate by itself in the mitochondria

Compound: CC(=O)N(O)CCCCCNC(=O)CCC(=O)N(O)CCCCCNC(=O)CCC(=O)N(O)CCCCCN [DFO, Desferrioxamine]
- Suppression of iron-catalysed oxidation of the DHR probe [3]: efficiently suppressed
- IC50 (A2780 cells [4]): 1.45 ± 0.13 mM

Compound: CC(=O)N(O)CCCCCNC(=O)CCC(=O)N(O)CCCCCNC(=O)CCC(=O)N(O)CCCCCNC(=O)CCC(=O)N[C@@H](Cc1ccccc1)C(=O)N[C@H](CCCNC(=N)N)C(=O)N[C@@H](Cc1ccccc1)C(=O)N[C@@H](CCCCN)C(N)=O [DFO-SS20] ({DFO-Suc}-F[dR]FK-NH2)
- IC50 (A2780 cells [1]; 24 h): 62.4 ± 1.13 µM

Compound: CC(=O)N(O)CCCCCNC(=O)CCC(=O)N(O)CCCCCNC(=O)CCC(=O)N(O)CCCCCNC(=O)CCC(=O)N[C@@H](CC1CCCCC1)C(=O)N[C@H](CCCNC(=N)N)C(=O)N[C@@H](CC1CCCCC1)C(=O)N[C@@H](CCCCN)C(=O)N[C@@H](CC1CCCCC1)C(=O)N[C@H](CCCNC(=N)N)C(=O)N[C@@H](CC1CCCCC1)C(=O)N[C@@H](CCCCN)C(=O)N[C@@H](CCCCNC(=O)c1ccc2c(c1)C(=O)OC21c2ccc(N(C)C)cc2Oc2cc(N(C)C)ccc21)C(N)=O [DFO-1A-TAMRA] ({DFO-Suc}-[Cha][dR][Cha]K[Cha][dR][Cha]KK(5TAMRA)-NH2)
- IC50 (A2780 cells [1]; 24 h): 2.97 ± 1.06 µM

Compound: CC(=O)N(O)CCCCCNC(=O)CCC(=O)N(O)CCCCCNC(=O)CCC(=O)N(O)CCCCCNC(=O)CCC(=O)N[C@@H](Cc1ccccc1)C(=O)N[C@H](CCCNC(=N)N)C(=O)N[C@@H](Cc1ccccc1)C(=O)N[C@@H](CCCCN)C(=O)N[C@@H](CCCCNC(=O)c1ccc2c(c1)C(=O)OC21c2ccc(N(C)C)cc2Oc2cc(N(C)C)ccc21)C(N)=O [DFO-SS20-TAMRA] ({DFO-Suc}-F[dR]FKK(5TAMRA)-NH2)
- IC50 (A2780 cells [1]; 24 h): 7.91 ± 1.19 µM

Compound: CC(=O)N(O)CCCCCNC(=O)CCC(=O)N(O)CCCCCNC(=O)CCC(=O)N(O)CCCCCNC(=O)CCC(=O)N[C@@H](Cc1c(C)cc(O)cc1C)C(=O)N[C@H](CCCNC(=N)N)C(=O)N[C@@H](Cc1ccccc1)C(=O)N[C@@H](CCCCN)C(N)=O [DFO-SS02]
- IC50 (A2780 cells [1]; [5]): 42.9 ± 1.06 µM
